Data as given in patent publication US20030181335A1, “Novel 3- (4-cyanophenyl) uracils” (priority 1995, published 2003).

What was measured:
Experiment in all cases: Greenhouse herbicidal activity, post-emergence
Format in all cases: in vivo
Settings in all cases: application rate 0.0156 or 0.0078 kg of a.i./ha
[1] = test system: Ipomoea subspecies
Source text: (§1) The culture containers used were plastic flower pots containing loamy sand with approximately 3.0% of humus as the substrate. The seeds of the test plants were sown separately for each species.
(§2) For the post-emergence treatment, the test plants were first grown to a plant height of 3 to 15 cm, depending on the growth form, and only then treated with the active ingredients which were suspended or emulsified in water. The test plants were either sown directly and grown in the same containers, or grown separately as seedlings and transplanted to the test containers a few days prior to treatment. The application rate for the post-emergence treatment was 0.0156 or 0.0078 kg of a.i. (active ingredient) per ha.
(§3) The plants were kept at from 10-25° C. or 20-35° C., depending on the species. The test period extended to 2-4 weeks. During this time, the plants were tended and their response to individual treatments was evaluated.
(§4) Evaluation was carried out using a scale from 0 to 100. 100 means no emergence of the plants, or complete destruction of at least the aerial parts, and 0 means no damage or normal course of growth.
(§5) The plants used for the greenhouse experiments were the following species: […]

[2] = test system: Abutilon theophrasti
Source text: as §1, §2, §3, §4, §5

[3] = test system: Solanum nigrum
Source text: as §1, §2, §3, §4, §5

[4] = test system: Galium aparine
Source text: as §1, §2, §3, §4, §5

COc1cc(-n2c(=O)cc(C(F)(F)F)n(N)c2=O)ccc1C#N [Compound No. I.02, 1-Amino-3-[4-cyano-3-methoxyphenyl]-6-trifluoromethyl-1,2,3,4-tetrahydropyrimidine-2,4-dione]
very effective: herbicidal action against Ipomoea subspecies (morningglory) [1] | herbicidal action against Abutilon theophrasti (velvet leaf) [2] | herbicidal action against Solanum nigrum (black nightshade) [3] | herbicidal action against Galium aparine (catchweed bedstraw) [4]
